Laboratory results: US8669247B2, “2,5-disubstituted arylsulfonamide CCR3 antagonists” (Axikin Pharmaceuticals, Inc., priority 2009, dated 2014)

Biological target: T1, CCR3 receptor (UniProt P51677)
T1 sequence (P51677 1-355): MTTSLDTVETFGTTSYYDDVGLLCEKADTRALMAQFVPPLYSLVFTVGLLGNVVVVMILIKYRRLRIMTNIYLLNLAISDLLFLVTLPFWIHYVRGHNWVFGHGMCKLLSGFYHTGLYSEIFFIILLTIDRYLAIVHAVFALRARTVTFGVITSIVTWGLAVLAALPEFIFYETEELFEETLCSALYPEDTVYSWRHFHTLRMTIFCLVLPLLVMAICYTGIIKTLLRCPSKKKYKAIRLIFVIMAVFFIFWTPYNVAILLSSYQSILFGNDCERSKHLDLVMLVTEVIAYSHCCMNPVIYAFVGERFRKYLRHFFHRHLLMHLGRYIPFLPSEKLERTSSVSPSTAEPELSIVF
Test: CCR3 Receptor Binding Assay ([125I]-labeled human eotaxin/CCL11 displacement on cells)
Procedure: Cells were washed once with PBS and resuspended in a binding buffer (25 mM HEPES pH 7.6, 5 mM MgCl2, 1 mM CaCl2, 0.5% BSA, 0.1% NaN3), […] of cell suspension (2×10^5 cells/well) and 0.1 nM [^125I]-labeled human eotaxin/CCL11 (2000 Ci/mmol specific activity) were mixed in a 96-well U-bottom polypropylene plate, and incubated for 60 min at room temperature for the binding reaction. The cell suspension was then transferred to a filtration plate (#MAFB, Millipore), and washed 3 times with the binding buffer containing 0.5 M NaCl, scintillant added, and the radioactivity was counted on a TopCount (Packard). For the determination of non-specific binding, the cell suspension and [^125I]-labeled human eotaxin/CCL11 were incubated in the presence of 500 nM of unlabeled human eotaxin/CCL11. See, lino et al., “Molecular cloning and functional characterization of cynomolgus monkey (Macaca fascicularis) CC chemokine receptor, CCR3,” Cytokine 2002, 19, 276-286.

[1] = Free (free form of the compound)
[2] = HCl: hydrochloric acid salt of the corresponding compound

| Compound | Ki [1] [nM] | Ki [2] [nM] | also measured |
| --- | --- | --- | --- |
| Cc1ccc(C)c(Oc2ccc(C#N)cc2S(=O)(=O)N2CCNCC2)c1 [Compound 51, 4-(2,5-Dimethylphenoxy)-3-(piperazin-1-ylsulfonyl)benzonitrile] | 100 to 500 | 25 to 100 | – |
| CC(C)N1CCN(S(=O)(=O)c2cc(C#N)ccc2Oc2cc(F)ccc2F)CC1 [Compound 54, 4-(2,5-Difluorophenoxy)-3-(4-isopropylpiperazin-1-ylsulfonyl)benzonitrile] | 100 to 500 | 25 to 100 | – |
| CCC(CC)N1CCN(S(=O)(=O)c2cc(C#N)ccc2Oc2cc(F)ccc2F)CC1 [Compound 55, 4-(2,5-Difluorophenoxy)-3-(4-(pentan-3-yl)piperazin-1-ylsulfonyl)benzonitrile] | > 5 | – | – |
| CN1CCCN(S(=O)(=O)c2cc(C#N)ccc2Oc2cc(F)ccc2F)CC1 [Compound 57, 4-(2,5-Difluorophenoxy)-3-(4-methyl-1,4-diazepan-1-ylsulfonyl)benzonitrile] | – | > 5 | – |
| CN(C)C1CCN(S(=O)(=O)c2cc(C#N)ccc2Oc2cc(F)ccc2F)CC1 [Compound 59, 4-(2,5-Difluorophenoxy)-3-(4-(dimethylamino)piperidin-1-ylsulfonyl)benzonitrile] | > 5 | > 5 | – |
| N#Cc1ccc(Oc2cc(F)ccc2F)c(S(=O)(=O)N2CCC(N3CCCC3)CC2)c1 [Compound 60, 4-(2,5-Difluorophenoxy)-3-(4-(pyrrolidin-1-yl)piperidin-1-ylsulfonyl)benzonitrile] | > 5 | > 5 | – |
| CCN(CC)CCNS(=O)(=O)c1cc(C#N)ccc1Oc1cc(F)ccc1F [Compound 62, 5-Cyano-N-(2-(diethylamino)ethyl)-2-(2,5-difluorophenoxy)benzenesulfonamide] | – | > 5 | – |
| N#Cc1ccc(Oc2cc(F)ccc2F)c(S(=O)(=O)NCCN2CCCC2)c1 [Compound 63, 5-Cyano-2-(2,5-difluorophenoxy)-N-(2-(pyrrolidin-1-yl)ethyl)benzenesulfonamide] | > 5 | > 5 | – |
| N#Cc1ccc(Oc2cc(F)ccc2F)c(S(=O)(=O)NCCN2CCCCC2)c1 [Compound 64, 5-Cyano-2-(2,5-difluorophenoxy)-N-(2-(piperidin-1-yl)ethyl)benzenesulfonamide] | > 5 | > 5 | – |
| Cc1ccc(C)c(Sc2ccc(C#N)cc2S(=O)(=O)N2CCNCC2)c1 [Compound 65, 4-(2,5-Dimethylphenylthio)-3-(piperazin-1-ylsulfonyl)benzonitrile] | > 5 | – | – |
| Cc1ccc(C)c(Sc2ccc(C#N)cc2S(=O)(=O)N2CCCN(C)CC2)c1 [Compound 70, 4-(2,5-Dimethylphenylthio)-3-(4-methyl-1,4-diazepan-1-ylsulfonyl)benzonitrile] | 100 to 500 | – | – |
| Cc1ccc(C)c(Sc2ccc(C#N)cc2S(=O)(=O)N2CCOCC2)c1 [Compound 71, 4-(2,5-Dimethylphenylthio)-3-(morpholinosulfonyl)benzonitrile] | > 5 | – | – |
| Cc1ccc(C)c(Sc2ccc(C#N)cc2S(=O)(=O)N2CCC(N(C)C)CC2)c1 [Compound 72, 3-(4-(Dimethylamino)piperidin-1-ylsulfonyl)-4-(2,5-dimethylphenylthio)-benzonitrile] | > 5 | 25 to 100 | – |
| CCN(CC)CCNS(=O)(=O)c1cc(C#N)ccc1Sc1cc(C)ccc1C [Compound 73, 5-Cyano-N-(2-(diethylamino)ethyl)-2-(2,5-dimethylphenylthio)-benzenesulfonamide] | – | 25 to 100 | – |
| Cc1ccc(C)c(Sc2ccc([N+](=O)[O-])cc2S(=O)(=O)N2CCC(N3CCCC3)CC2)c1 [Compound 75, 1-(2-(2,5-Dimethylphenylthio)-5-nitrophenylsulfonyl)-4-(pyrrolidin-1-yl)piperidine] | – | ≤ 10 | – |
| CN(C)C1CCN(S(=O)(=O)c2cc(C#N)ccc2Sc2cc(Cl)ccc2Cl)CC1 [Compound 83, 4-(2,5-Dichlorophenylthio)-3-(4-(dimethylamino)piperidin-1-ylsulfonyl)benzonitrile] | 25 to 100 | ≤ 10 | – |
| Cc1ccc(C)c(Sc2ccc(C#N)cc2S(=O)(=O)N2CCSCC2)c1 [Compound 85, 4-(2,5-Dimethylphenylthio)-3-(thiomorpholinosulfonyl)benzonitrile] | > 5 | – | – |
| CC1CCN(S(=O)(=O)c2cc(C#N)ccc2Oc2cc(Cl)ccc2Cl)CC1 [Compound 87, 4-(2,5-Dichlorophenoxy)-3-(4-methylpiperidin-1-ylsulfonyl)benzonitrile] | > 5 | – | – |

Continued, in another order:

| Ki [1] [nM] | Ki [2] [nM] | Compound | also measured |
| --- | --- | --- | --- |
| 25 to 100 | – | CC1CN(S(=O)(=O)c2cc(C#N)ccc2Oc2cc(F)ccc2F)CC(C)N1 (stereo not drawn) [Compound 53, 4-(2,5-Difluorophenoxy)-3-(3,5-dimethylpiperazin-1-ylsulfonyl)benzonitrile] | – |
| 25 to 100 | 25 to 100 | N#Cc1ccc(Oc2cc(F)ccc2F)c(S(=O)(=O)N2CCN(C3CCCC3)CC2)c1 [Compound 56, 3-(4-Cyclopentylpiperazin-1-ylsulfonyl)-4-(2,5-difluorophenoxy)benzonitrile] | – |
| 10 to 25 | – | O=[N+]([O-])c1ccc(Oc2cc(Cl)ccc2Cl)c(S(=O)(=O)N2CCC(N3CCCC3)CC2)c1 [Compound 61] | – |
| ≤ 10 | – | Cc1ccc(C)c(Sc2ccc(C#N)cc2S(=O)(=O)N2CC(C)NC(C)C2)c1 (stereo not drawn) [Compound 66, 4-(2,5-Dimethylphenylthio)-3-(3,5-dimethylpiperazin-1-ylsulfonyl)-benzonitrile] | – |
| 25 to 100 | 100 to 500 | Cc1ccc(C)c(Sc2ccc(C#N)cc2S(=O)(=O)N2CCN(C(C)C)CC2)c1 [Compound 67, 4-(2,5-Dimethylphenylthio)-3-(4-isopropylpiperazin-1-ylsulfonyl)benzonitrile] | – |
| 25 to 100 | 25 to 100 | CCC(CC)N1CCN(S(=O)(=O)c2cc(C#N)ccc2Sc2cc(C)ccc2C)CC1 [Compound 68, 4-(2,5-Dimethylphenylthio)-3-(4-(pentan-3-yl)piperazin-1-ylsulfonyl)benzonitrile] | – |
| 25 to 100 | 100 to 500 | Cc1ccc(C)c(Sc2ccc(C#N)cc2S(=O)(=O)N2CCN(C3CCCC3)CC2)c1 [Compound 69, 3-(4-Cyclopentylpiperazin-1-ylsulfonyl)-4-(2,5-dimethylphenylthio)-benzonitrile] | – |
| 10 to 25 | ≤ 10 | Cc1ccc(C)c(Sc2ccc(C#N)cc2S(=O)(=O)N2CCC(N3CCCC3)CC2)c1 [Compound 74, 4-(2,5-Dimethylphenylthio)-3-(4-(pyrrolidin-1-yl)piperidin-1-ylsulfonyl)-benzonitrile] | – |
| ≤ 10 | ≤ 10 | N#Cc1ccc(Sc2cc(Cl)ccc2Cl)c(S(=O)(=O)N2CCNCC2)c1 [Compound 76, 4-(2,5-Dichlorophenylthio)-3-(piperazin-1-ylsulfonyl)benzonitrile] | – |
| ≤ 10 | ≤ 10 | CC(C)N1CCN(S(=O)(=O)c2cc(C#N)ccc2Sc2cc(Cl)ccc2Cl)CC1 [Compound 77, 4-(2,5-Dichlorophenylthio)-3-(4-isopropylpiperazin-1-ylsulfonyl)benzonitrile] | – |
| 25 to 100 | 25 to 100 | CCC(CC)N1CCN(S(=O)(=O)c2cc(C#N)ccc2Sc2cc(Cl)ccc2Cl)CC1 [Compound 78, 4-(2,5-Dichlorophenylthio)-3-(4-(pentan-3-yl)piperazin-1-ylsulfonyl)-benzonitrile] | – |
| ≤ 10 | ≤ 10 | CC1CN(S(=O)(=O)c2cc(C#N)ccc2Sc2cc(Cl)ccc2Cl)CC(C)N1 (stereo not drawn) [Compound 79, 4-(2,5-Dichlorophenylthio)-3-(3,5-dimethylpiperazin-1-ylsulfonyl)benzonitrile] | – |
| ≤ 10 | ≤ 10 | N#Cc1ccc(Sc2cc(Cl)ccc2Cl)c(S(=O)(=O)N2CCN(C3CCCC3)CC2)c1 [Compound 80, 3-(4-Cyclopentylpiperazin-1-ylsulfonyl)-4-(2,5-dichlorophenylthio)-benzonitrile] | Ki ((CO2H)2 salt): 25 to 100 nM; Ki (EtSO3H salt): ≤ 10 nM; Ki (H2SO4 salt): ≤ 10 nM; Ki (HNO3 salt): 25 to 100 nM; Ki (MeSO3H salt): ≤ 10 nM |
| ≤ 10 | 10 to 25 | CN1CCCN(S(=O)(=O)c2cc(C#N)ccc2Sc2cc(Cl)ccc2Cl)CC1 [Compound 81, 4-(2,5-Dichlorophenylthio)-3-(4-methyl-1,4-diazepan-1-ylsulfonyl)-benzonitrile] | – |
| ≤ 10 | ≤ 10 | N#Cc1ccc(Sc2cc(Cl)ccc2Cl)c(S(=O)(=O)N2CCC(N3CCCC3)CC2)c1 [Compound 84, 4-(2,5-Dichlorophenylthio)-3-(4-(pyrrolidin-1-yl)piperidin-1-ylsulfonyl)benzonitrile] | – |
| ≤ 10 | – | CC(C)N1CCN(S(=O)(=O)c2cc(C#N)ccc2Oc2cc(Cl)ccc2Cl)CC1 [Compound 88, 4-(2,5-Dichlorophenoxy)-3-(4-isopropylpiperazin-1-ylsulfonyl)benzonitrile] | – |
| 10 to 25 | – | CCC(CC)N1CCN(S(=O)(=O)c2cc(C#N)ccc2Oc2cc(Cl)ccc2Cl)CC1 [Compound 89, 4-(2,5-Dichlorophenoxy)-3-(4-(pentan-3-yl)piperazin-1-ylsulfonyl)-benzonitrile] | – |
